{"source": "paper PMC7065950", "about": "(Nature biotechnology, 2020)", "type_in_all_cases": "in vivo, C57BL/6 mice", "key": {"B16-F10 tumor cells": {"system": "B16-F10 tumor cells", "experiment": "B16-F10 therapeutic tumor model", "settings": "B16-F10 SC implanted"}, "[1]": {"system": "antigen-specific CD8 T cells", "experiment": "CD8 T cell response by intracellular cytokine staining of blood", "settings": "LP delivered as SNP-7/8a; × = immunogenic; listed as M07"}, "[2]": {"system": "antigen-specific CD4 T cells", "experiment": "CD4 T cell response by intracellular cytokine staining of blood", "settings": "LP delivered as SNP-7/8a; × = immunogenic"}}, "data": [{"sequence": "ELINFKRKRVAAFQKNLIEMSELEIKH [Compound B16-M39]", "values": [{"measurement": "Tumor control, neoantigen as LP + polyIC by SC route", "setting": "B16-F10 tumor cells; days 1, 8 and 15 with anti-PD-L1 IP", "value": "no efficacy observed"}]}, {"sequence": "TAKSVMCTYSPPLDKLFCQLAKTCPVQ [Compound B16-M07]", "values": [{"measurement": "CD8 response, present study, SNP-7/8a", "setting": "[1]", "value": "induced a CD8 T cell response"}, {"measurement": "CD4 response, present study, SNP-7/8a", "setting": "[2]", "value": "no significant CD4 T cell response"}, {"measurement": "Tumor control, neoantigen as SNP-7/8a by IV route", "setting": "B16-F10 tumor cells; with anti-PD-L1 IP", "value": "improved control of tumor growth"}]}]}
